In patent US4492650A, “A54556 Antibiotics and process for production thereof” (Eli Lilly and Company, priority 1982, dated 1985):
In brackets after ≈: the same amount, converted by molar mass. Several values for one entry are separate records, joined by “and”; a condition that tells them apart may be missing. Identical values can stand only once. Like-named read-outs stand apart in the source and are kept apart here. Bridge positions count the residues as written; N and C are the ends. Square brackets hold non-standard residues; d marks the D form. Peptide text beside a SMILES is read from it. * marks the point of attachment. ξ: configuration not given here. Octatrienoyl(2E,4E,6E) = C/C=C/C=C/C=C/C(=O)*; ξPro(4ξ-Me) = CC1CNC(C(=O)O)C1; X2 = CCC/C=C/C=C/C(=O)*; NMeA = CN[CH](C)C(=O)O

Experiments:
anaerobic bacteria = test: Activity against anaerobic bacteria; format: cell-based; details: agar-dilution method
Electrometric titration = format: physicochemical; details: 66 percent dimethylformamide in water
Text: Antibiotic A54556 factor A is a tan, amorphous solid. […] As determined by electron impact and field desorption mass spectrometry, A54556 factor A has a molecular weight of 718.

S. pyogenes = test: In vivo protection against experimental bacterial infection in mice; details: Streptococcus pyogenes, sc, two doses subcutaneously
Procedure: (§1) When two doses of test compound were administered subcutaneously to mice in illustrative infections, the activity is measured as an ED50 value [effective does in mg./kg. to protect fifty percent of the test animals: See Warren Wick et al., J. Bacteriol. 81, 233-235 (1961)]. The ED50 values for these antibiotic A54556 factors are recorded in Table 15, which follows.

[1] = tested on: Streptococcus sp. (Group D) X66; test: Disc-plate sensitivity; format: cell-based; details: second test, Table 13; for zone of inhibition at 30 µg/disc / zone of inhibition at 300 µg/disc: Streptococcus; for zone of inhibition at 30 µg/disc: read-out: Zone diameter, 30 mcg./disc; for Zone diameter: listed as B
[2] = tested on: Clostridium perfringens 81; test: microbe, parasite or virus in culture; format: cell-based
[3] = tested on: Bacteroides corrodens 1874; test: MIC, agar-dilution method; format: cell-based; details: Eikenella corrodens
[4] = tested on: Staphylococcus epidermidis EPI1; details: second test, Table 13
[5] = tested on: experimental bacterial infections; test: In vivo antimicrobial activity against experimental bacterial infections; details: mice, subcutaneously
Procedure: as §1

[6] = tested on: Staphylococcus aureus 3055; details: second test, Table 13, benzylpenicillin-susceptible
[7] = tested on: Streptococcus pyogenes (Group A) C203; details: second test, Table 13
[8] = tested on: Staphylococcus aureus V41; details: second test, Table 13, benzylpenicillin resistant
[9] = tested on: Fusobacterium symbiosum 1470; test: MIC, agar-dilution method; format: cell-based
Peptococcus prevoti 1281 = test: MIC, agar-dilution method; format: cell-based
[10] = tested on: Streptococcus pneumoniae Park I; details: second test, Table 13
Bacteroides fragilis 111 = test: MIC, agar-dilution method; format: cell-based
Text: (§2) Antibiotic A54556 factors A, B, C, D, E, F, G, and H have been tested and found to be active against a number of anaerobic bacteria, as recorded in Table 14, which follows, the MIC values having been determined by the agar-dilution method.

[11] = tested on: Bacteroides fragilis 1936B; test: MIC, agar-dilution method; format: cell-based
Text: as §2

[12] = tested on: Bacteroides thetaiotaomicron 1438; test: MIC, agar-dilution method; format: cell-based
Text: as §2

[13] = tested on: Bacteroides melaninogenicus 1856/28; test: MIC, agar-dilution method; format: cell-based; details: Prevotella intermedia
Text: as §2

[14] = tested on: Fusobacterium necrophorum 6054A; test: MIC, agar-dilution method; format: cell-based
Text: as §2

[15] = tested on: Eubacterium aerofaciens 1235; test: MIC, agar-dilution method; format: cell-based; details: Collinsella aerofaciens
Text: as §2

[16] = tested on: Bacteroides melaninogenicus 2736; test: MIC, agar-dilution method; format: cell-based
Text: as §2

[17] = tested on: Peptostreptococcus intermedius 1264; test: MIC, agar-dilution method; format: cell-based
Text: as §2

[18] = tested on: Bacteroides fragilis 1877; test: MIC, agar-dilution method; format: cell-based
Text: as §2

[19] = tested on: Clostridium difficile 2994; test: MIC, agar-dilution method; format: cell-based; details: Clostridioides difficile
Text: as §2

[20] = tested on: Clostridium septicum 1128; test: MIC, agar-dilution method; format: cell-based
Text: as §2

[21] = tested on: Propionibacterium acnes 79; test: MIC, agar-dilution method; format: cell-based; details: Cutibacterium acnes
Text: as §2

[22] = tested on: Peptostreptococcus anaerobius 1428; test: MIC, agar-dilution method; format: cell-based
[23] = tested on: Peptococcus asaccharolyticus 1302; test: MIC, agar-dilution method; format: cell-based; details: Peptoniphilus asaccharolyticus
[24] = tested on: Bacteroides vulgatis 1211; test: MIC, agar-dilution method; format: cell-based
Culture A54556 = test: Sensitivity of Culture A54556 to antibiotics, sensitivity discs on ISP medium No. 2 agar; format: cell-based, Streptomyces hawaiiensis NRRL 15010; note: key: +: sensitive, zones of inhibition; -: resistant, no zones of inhibition
Procedure: The sensitivity of Culture A54556 to several antibiotics at specific concentrations was determined with sensitivity discs padded onto the surface of plates containing ISP medium No. 2 agar seeded with 2% inoculum of Culture A54556.

Row | Structure (SMILES) | activity against a number of anaerobic bacteria (anaerobic bacteria) | titratable groups (Electrometric titration) | ED50 (S. pyogenes) | zone of inhibition at 30 µg/disc [1] | MIC [2] | MIC [3] | in vivo antimicrobial activity against experimental bacterial infections [5] | Zone diameter ([6]; 30 mcg./disc) | Zone diameter ([6]; 300 mcg./disc) | Zone diameter ([8]; 30 mcg./disc) | Zone diameter ([8]; 300 mcg./disc) | Zone diameter ([10]; 30 mcg./disc) | Zone diameter ([10]; 300 mcg./disc) | MIC (Bacteroides fragilis 111) | MIC [11] | MIC [12] | MIC [13] | MIC [14] | MIC [15] | MIC [16] | other results
1 | CCC/C=C/C=C/C(=O)NC(Cc1ccccc1)C(=O)NC1COC(=O)C2CCCN2C(=O)C(C)NC(=O)C(C)N(C)C(=O)C2CC(C)CN2C1=O (stereo not drawn) [Factor D] (X2-FS[ξPro(4ξ-Me)][NMeA]AP; ester 2-C; configuration not given here) | active | no titratable groups | > 70 mg/kg | 26 mm | > 128 µg/mL | > 128 µg/mL | have shown in vivo antimicrobial activity | 29 mm. | 30 mm. | 27 mm. | 28 mm. | 30 mm. | 34 mm. | > 128 µg/mL | > 128 µg/mL | > 128 µg/mL | > 128 µg/mL | > 128 µg/mL | > 128 µg/mL | > 128 µg/mL | zone of inhibition at 300 µg/disc ([1]; read-out: Zone diameter, 300 mcg./disc): 33 mm; Zone diameter ([4]; 30 mcg./disc): 25 mm.; Zone diameter ([4]; 300 mcg./disc): 34 mm.; Zone diameter ([7]; 30 mcg./disc): 24 mm.; Zone diameter ([7]; 300 mcg./disc): 32 mm.; MIC [9]: > 128 µg/mL; MIC (Peptococcus prevoti 1281): > 128 µg/mL; MIC [17]: > 128 µg/mL; MIC [18]: > 128 µg/mL; MIC [19]: > 128 µg/mL; MIC [20]: > 128 µg/mL; MIC [21]: > 128 µg/mL; MIC [22]: 128 µg/mL (≈ 178 µM); MIC [23]: 128 µg/mL (≈ 178 µM); MIC [24]: > 128 µg/mL
2 | C/C=C/C=C/C=C/C(=O)NC(Cc1ccccc1)C(=O)NC1COC(=O)C2CCCN2C(=O)C(C)NC(=O)C(C)N(C)C(=O)C2CCCN2C1=O (stereo not drawn) [Factor B] ({Octatrienoyl(2E,4E,6E)}-FSP[NMeA]AP; ester 2-C; configuration not given here) | active | no titratable groups | > 70 mg/kg | 22 mm | 16 µg/mL (≈ 22.7 µM) | > 128 µg/mL | have shown in vivo antimicrobial activity | 18 mm. and 20 mm. | 26 mm. | 15 mm. and 18 mm. | 19 mm. and 26 mm. | 25 mm. | 32 mm. | 32 µg/mL (≈ 45.4 µM) | 16 µg/mL (≈ 22.7 µM) | 16 µg/mL (≈ 22.7 µM) | > 128 µg/mL | 16 µg/mL (≈ 22.7 µM) | 16 µg/mL (≈ 22.7 µM) | > 128 µg/mL | Zone diameter ([1]; 30 mcg./disc): 23 mm.; Zone diameter ([1]; 300 mcg./disc): 27 mm.; zone of inhibition at 300 µg/disc ([1]; 300 mcg./disc, read-out: Zone diameter): 30 mm; Zone diameter ([4]; 30 mcg./disc, listed as B): 13 mm. and 16 mm.; Zone diameter ([4]; 300 mcg./disc, listed as B): 21 mm. and 27 mm.; Zone diameter ([7]; 30 mcg./disc, listed as B): 18 mm. and 26 mm.; Zone diameter ([7]; 300 mcg./disc, listed as B): 24 mm. and 30 mm.; MIC ([9]; agar-dilution, read-out: MIC): 8 µg/mL (≈ 11.4 µM); MIC (Peptococcus prevoti 1281; agar-dilution, read-out: MIC): 8 µg/mL (≈ 11.4 µM); Zone diameter ([10]; 30 mcg./disc, listed as B): 20 mm.; Zone diameter ([10]; 300 mcg./disc, listed as B): 35 mm.; MIC [17]: > 128 µg/mL; MIC [18]: > 128 µg/mL; MIC [19]: > 128 µg/mL; MIC [20]: 16 µg/mL (≈ 22.7 µM); MIC [21]: > 128 µg/mL; MIC ([22]; agar-dilution, read-out: MIC): 8 µg/mL (≈ 11.4 µM); MIC ([23]; agar-dilution, read-out: MIC): 8 µg/mL (≈ 11.4 µM); MIC ([24]; agar-dilution, read-out: MIC): 32 µg/mL (≈ 45.4 µM)
3 | O=C(N[C@H](CO)[C@H](O)c1ccc([N+](=O)[O-])cc1)C(Cl)Cl [Chloromycetin (CAP), Chloromycetin] |  |  |  |  |  |  |  |  |  |  |  |  |  |  |  |  |  |  |  |  | Antibiotic Sensitivity of Culture A54556 (Culture A54556; 30 mcg. disc): trace
4 | CO[C@H]1/C=C/O[C@@]2(C)Oc3c(C)c(O)c4c(O)c(c(/C=N/N5CCN(C)CC5)c(O)c4c3C2=O)NC(=O)/C(C)=C\C=C\[C@H](C)[C@H](O)[C@@H](C)[C@@H](O)[C@@H](C)[C@H](OC(C)=O)[C@@H]1C [Rifampin] |  |  |  |  |  |  |  |  |  |  |  |  |  |  |  |  |  |  |  |  | Antibiotic Sensitivity of Culture A54556 (Culture A54556; 5 mcg. disc): +
5 | [H]/N=C(/N)N[C@H]1[C@H](O)[C@@H](O)[C@H](O[C@@H]2O[C@@H](C)[C@](O)(C=O)[C@H]2O[C@@H]2O[C@@H](CO)[C@H](O)[C@@H](O)[C@@H]2NC)[C@@H](N/C(N)=N\[H])[C@@H]1O [Streptomycin] |  |  |  |  |  |  |  |  |  |  |  |  |  |  |  |  |  |  |  |  | Antibiotic Sensitivity of Culture A54556 (Culture A54556; 10 mcg. disc): +
6 | CC[C@H]1OC(=O)[C@H](C)[C@@H](O[C@H]2C[C@@](C)(OC)[C@@H](O)[C@H](C)O2)[C@H](C)[C@@H](O[C@@H]2O[C@H](C)C[C@H](N(C)C)[C@H]2O)[C@](C)(O)C[C@@H](C)C(=O)[C@H](C)[C@@H](O)[C@]1(C)O [Erythromycin] |  |  |  |  |  |  |  |  |  |  |  |  |  |  |  |  |  |  |  |  | Antibiotic Sensitivity of Culture A54556 (Culture A54556; 15 mcg. disc): -
